Reference: PubChem BioAssay AID330 (DTP/NCI, 2004)
Where “and” joins values, the source holds several entries; their conditions need not be identical. Equal values may be shown once. Inconclusive results and toxic doses are left out. The calls were made as follows: active = survival T/C of 150% or more; inactive = T/C below 125% in these data.

Tested on: P388 leukemia ip, CD2F1 mice, survival T/C
Test: NCI In Vivo Anticancer Drug Screen. Data for tumor model P388 Leukemia (intraperitoneal) in CD2F1 (CDF1) mice
Conditions: endpoint: median survival time, higher = longer survival
Outline: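 Mice carrying the transplanted tumor received test compound or vehicle. Survival was recorded in each group, and the value is the treated-group measurement divided by that of the vehicle-treated control group.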

[1] = dose: 50.0 mg/kg/injection, schedule: Q01DX005 (ip), vehicle: saline with Tween-80
[2] = dose: 100.0 mg/kg/injection, schedule: Q01DX005 (ip), vehicle: saline with Tween-80
[3] = dose: 200.0 mg/kg/injection, schedule: Q01DX005 (ip), vehicle: saline with Tween-80
[4] = dose: 60.0 mg/kg/injection, schedule: Q01DX005 (ip), vehicle: Klucel (hydroxypropylcellulose) (HPC)
[5] = dose: 120.0 mg/kg/injection, schedule: Q01DX005 (ip), vehicle: Klucel (hydroxypropylcellulose) (HPC)
[6] = dose: 240.0 mg/kg/injection, schedule: Q01DX005 (ip), vehicle: Klucel (hydroxypropylcellulose) (HPC)
[7] = dose: 60.0 mg/kg/injection, schedule: Q01DX005 (ip), vehicle: saline with Tween-80
[8] = dose: 120.0 mg/kg/injection, schedule: Q01DX005 (ip), vehicle: saline with Tween-80
[9] = dose: 100.0 mg/kg/injection, schedule: Q01DX009 (ip), vehicle: saline with Tween-80
[10] = dose: 6.25 mg/kg/injection, schedule: Q01DX009 (ip), vehicle: saline with Tween-80
[11] = dose: 12.5 mg/kg/injection, schedule: Q01DX009 (ip), vehicle: saline with Tween-80
[12] = dose: 25.0 mg/kg/injection, schedule: Q01DX009 (ip), vehicle: saline with Tween-80

Measured: T/C

O=C(Nc1cccc(Cl)c1)Nc1ccc(Sc2ccc(Cl)cc2)o1
inactive: [1] 97 % of control | [2] 88 % of control | [3] 92 % of control

Nc1ccc2cc(S(=O)(=O)O)cc(O)c2c1N=Nc1ccc(F)cc1
inactive: dose: 25.0 mg/kg/injection, schedule: Q01DX009 (ip), vehicle: saline 93 % of control | dose: 50.0 mg/kg/injection, schedule: Q01DX009 (ip), vehicle: saline 93 % of control | dose: 100.0 mg/kg/injection, schedule: Q01DX009 (ip), vehicle: saline 88 % of control and 91 % of control

COC1=CC23CCCN2CCc2cc4c(cc2C3C1O)OCO4 (stereo unspecified)
inactive: dose: 12.5 mg/kg/injection, schedule: Q01DX009 (ip), vehicle: water 103 % of control | dose: 25.0 mg/kg/injection, schedule: Q01DX009 (ip), vehicle: water 99 % of control | dose: 50.0 mg/kg/injection, schedule: Q01DX009 (ip), vehicle: water 104 % of control | [4] 101 % of control | dose: 100.0 mg/kg/injection, schedule: Q01DX009 (ip), vehicle: water 96 % of control | [5] 106 % of control | dose: 200.0 mg/kg/injection, schedule: Q01DX009 (ip), vehicle: water 99 % of control | [6] 101 % of control

CCOc1c(N=Nc2ccccc2OC)c(C)nn1C(N)=S
inactive: dose: 3.75 mg/kg/injection, schedule: Q01DX005 (ip), vehicle: Klucel + Tween-80 100 % of control | dose: 7.5 mg/kg/injection, schedule: Q01DX005 (ip), vehicle: Klucel + Tween-80 94 % of control | dose: 15.0 mg/kg/injection, schedule: Q01DX005 (ip), vehicle: Klucel + Tween-80 99 % of control and 105 % of control

CC1OC(c2c(Cl)cccc2[N+](=O)[O-])OC1C (stereo unspecified)
inactive: [4] 99 % of control | [5] 91 % of control | [6] 92 % of control

C/C(=N\N=C(/[Se])N1CC2CCC(CC2)C1)c1ccccn1
inactive: dose: 1.56 mg/kg/injection, schedule: Q01DX009 (ip), vehicle: Klucel (hydroxypropylcellulose) (HPC) 100 % of control | dose: 3.12 mg/kg/injection, schedule: Q01DX009 (ip), vehicle: Klucel (hydroxypropylcellulose) (HPC) 124 % of control | dose: 12.5 mg/kg/injection, schedule: Q01DX009 (ip), vehicle: Klucel (hydroxypropylcellulose) (HPC) 98 % of control and 97 % of control

COc1ccc(/C(O)=C/c2nc3ccc([N+](=O)[O-])cc3[nH]c2=O)cc1
inactive: dose: 60.0 mg/kg/injection, schedule: Q01DX005 (ip), vehicle: Klucel + Tween-80 97 % of control | dose: 120.0 mg/kg/injection, schedule: Q01DX005 (ip), vehicle: Klucel + Tween-80 94 % of control | dose: 240.0 mg/kg/injection, schedule: Q01DX005 (ip), vehicle: Klucel + Tween-80 95 % of control

COc1ccc(OC)c2c1C(=O)C=CC2=O
inactive: dose: 1.56 mg/kg/injection, schedule: Q01DX001 (ip), vehicle: saline 108 % of control | dose: 3.13 mg/kg/injection, schedule: Q01DX001 (ip), vehicle: saline 110 % of control | dose: 6.25 mg/kg/injection, schedule: Q01DX001 (ip), vehicle: saline 108 % of control

C(#Cc1c2ccccc2c(C#Cc2ccccc2)c2c1oc1c3ccccc3ccc12)c1ccccc1
inactive: dose: 100.0 mg/kg/injection, schedule: Q04DX003 (ip), vehicle: saline with Tween-80 97 % of control | dose: 200.0 mg/kg/injection, schedule: Q04DX003 (ip), vehicle: saline with Tween-80 97 % of control | dose: 400.0 mg/kg/injection, schedule: Q04DX003 (ip), vehicle: saline with Tween-80 92 % of control

CC[Si](C=C1CCCCC1)(CC)CC
inactive: dose: 50.0 mg/kg/injection, schedule: Q01DX009 (ip), vehicle: Klucel (hydroxypropylcellulose) (HPC) 101 % of control | dose: 100.0 mg/kg/injection, schedule: Q01DX009 (ip), vehicle: Klucel (hydroxypropylcellulose) (HPC) 110 % of control | dose: 200.0 mg/kg/injection, schedule: Q01DX009 (ip), vehicle: Klucel (hydroxypropylcellulose) (HPC) 109 % of control

CC12CC3(Nc4ccccc4C3(C)O)OC1(C)c1ccccc1N2 (stereo unspecified)
inactive: [1] 95 % of control | [2] 92 % of control | [3] 92 % of control

FC(F)(F)COP1OCCS1 (stereo unspecified)
inactive: dose: 12.5 mg/kg/injection, schedule: Q04DX002 (ip), vehicle: saline with Tween-80 99 % of control | dose: 25.0 mg/kg/injection, schedule: Q04DX002 (ip), vehicle: saline with Tween-80 99 % of control | dose: 50.0 mg/kg/injection, schedule: Q04DX002 (ip), vehicle: saline with Tween-80 98 % of control | dose: 100.0 mg/kg/injection, schedule: Q04DX002 (ip), vehicle: saline with Tween-80 100 % of control | dose: 200.0 mg/kg/injection, schedule: Q04DX002 (ip), vehicle: saline with Tween-80 104 % of control

CC1OC2CC(O)C1(O)C1=C2C(O)=C(C(N)=O)C(=N)C1=O (stereo unspecified)
inactive: dose: 0.01 mg/kg/injection, schedule: Q01DX009 (ip), vehicle: water 99 % of control | dose: 0.03 mg/kg/injection, schedule: Q01DX009 (ip), vehicle: water 100 % of control | dose: 0.07 mg/kg/injection, schedule: Q01DX009 (ip), vehicle: other 95 % of control | dose: 0.1 mg/kg/injection, schedule: Q01DX009 (ip), vehicle: water 100 % of control | dose: 0.15 mg/kg/injection, schedule: Q01DX009 (ip), vehicle: other 98 % of control | dose: 0.3 mg/kg/injection, schedule: Q01DX009 (ip), vehicle: water 100 % of control | dose: 0.31 mg/kg/injection, schedule: Q01DX005 (ip), vehicle: saline 104 % of control | dose: 0.31 mg/kg/injection, schedule: Q01DX009 (ip), vehicle: other 107 % of control | dose: 0.62 mg/kg/injection, schedule: Q01DX005 (ip), vehicle: saline 104 % of control | dose: 0.62 mg/kg/injection, schedule: Q01DX009 (ip), vehicle: other 101 % of control | dose: 1.0 mg/kg/injection, schedule: Q01DX009 (ip), vehicle: water 90 % of control | dose: 1.25 mg/kg/injection, schedule: Q01DX005 (ip), vehicle: saline 104 % of control | dose: 1.25 mg/kg/injection, schedule: Q01DX009 (ip), vehicle: other 103 % of control | dose: 2.5 mg/kg/injection, schedule: Q01DX005 (ip), vehicle: saline 104 % of control | dose: 2.5 mg/kg/injection, schedule: Q01DX009 (ip), vehicle: other 113 % of control | dose: 3.0 mg/kg/injection, schedule: Q01DX009 (ip), vehicle: water 100 % of control | dose: 5.0 mg/kg/injection, schedule: Q01DX005 (ip), vehicle: saline 101 % of control

CN(C)C(=O)C1CCC(=O)N1 (stereo unspecified)
inactive: dose: 60.0 mg/kg/injection, schedule: Q01DX005 (ip), vehicle: saline 100 % of control | dose: 120.0 mg/kg/injection, schedule: Q01DX005 (ip), vehicle: saline 109 % of control | dose: 240.0 mg/kg/injection, schedule: Q01DX005 (ip), vehicle: saline 105 % of control

CSc1nc2c(nnn2C2OCC(O)C(O)C2O)c(=O)n1C (stereo unspecified)
inactive: [7] 102 % of control | [8] 99 % of control | dose: 240.0 mg/kg/injection, schedule: Q01DX005 (ip), vehicle: saline with Tween-80 96 % of control

CCOC(=O)c1cc(CC)sc1N
inactive: [9] 90 % of control | dose: 200.0 mg/kg/injection, schedule: Q01DX009 (ip), vehicle: saline with Tween-80 90 % of control

C=CCSC(C)=O
inactive: dose: 30.0 mg/kg/injection, schedule: Q01DX005 (ip), vehicle: saline with Tween-80 98 % of control | [7] 100 % of control | [8] 99 % of control

CCOC(=S)NS(=O)(=O)c1ccccc1
inactive: [10] 107 % of control | [11] 102 % of control | [12] 109 % of control | dose: 50.0 mg/kg/injection, schedule: Q01DX009 (ip), vehicle: saline with Tween-80 116 % of control

C/C=C/[Se]c1ccccc1
inactive: [10] 103 % of control | [11] 106 % of control | [12] 103 % of control | [9] 105 % of control and 107 % of control and 121 % of control

CCCCCCCCCCCC(=O)OC1CCC2(C)C(=CCC3C2CCC2(C)C(C(C)/C=C/C(CC)C(C)C)CCC32)C1 (stereo unspecified)
inactive: dose: 100.0 mg/kg/injection, schedule: Q04DX003 (ip), vehicle: other 102 % of control | dose: 200.0 mg/kg/injection, schedule: Q04DX003 (ip), vehicle: other 102 % of control
